According to patent US11472838B2, “Inhibitors of blood coagulation factor XIII” (Zedira GmbH, priority 2018, dated 2022):
Like-named read-outs stand apart in the source and are kept apart here. *1 amine or outer side, *2 acyl side, *3 side chain or, on linkers, in order; H or OH if unused. Where a SMILES comes first, the peptide text is derived from it. [ ]: non-standard residue; d: D form. The star is where a group is joined. ξ: configuration not given here. Benzoyl(3-COOH,5-NO2) = O=C(O)c1cc(C(=O)*)cc([N+](=O)[O-])c1; Pro(3R,4S-CMe2) = CC1(C)[C@@H]2[C@@H](C(=O)O)NC[C@@H]21; Benzoyl(2-COOH-4,5-Cl2) = O=C(O)c1cc(Cl)c(Cl)cc1C(=O)*; Pro(3S,4R-(CH2)3) = O=C(O)[C@H]1NC[C@@H]2CCC[C@@H]21; Nle(5E-ene,6-CO2Et) = CCOC(=O)/C=C/CC[C@H](N)C(=O)O; Isonicotinoyl(3-COOH) = O=C(O)c1cnccc1C(=O)*; X1 = COC(=O)/C=C/CC[C@H](N[*:1])C(=O)[*:2]; X8 = NC(=O)/C=C/CC[C@H](N[*:1])C(=O)[*:2]; Pro(4-methylene) = C=C1CN[C@H](C(=O)O)C1; Morpholine(3S-CO) = O=C(O)[C@@H]1COCCN1; X3 = O=C(c1cnc(O)c([N+](=O)[O-])c1)*; Pro(4-oxo) = O=C1CN[C@H](C(=O)O)C1; Ala(cPr) = N[C@@H](CC1CC1)C(=O)O; Ile(3ξ) = CCC(C)[C@H](N)C(=O)O; Thr(3ξ) = CC(O)[C@H](N)C(=O)O; Chg = N[C@H](C(=O)O)C1CCCCC1; Tle = CC(C)(C)[C@H](N)C(=O)O; X4 = O=C(O)c1cncc(C(=O)*)c1; αMeP = C[C@@]1(C(=O)O)CCCN1; X6 = Cc1cccc(C)c1OCC(C)N*; X7 = O=C(O)c1nccnc1C(=O)*; Nle = CCCC[C@H](N)C(=O)O; ξV = CC(C)C(N)C(=O)O; Alloc = C=CCOC(=O)*

Columns and labels:
FXIII = FXIII (Homo sapiens (Human), UniProt P00488); test: Inhibitory activity against FXIII (isopeptidase assay), Tables 3 and 4; format: biochemical;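 further: FXIIIa activity read with a peptide substrate derived from the α2-antiplasmin N-terminal dodecapeptide, FXIII activated beforehand at room temperature, inhibitor-free wells with DMSO buffer as control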
Chain of FXIII (P00488 39-732): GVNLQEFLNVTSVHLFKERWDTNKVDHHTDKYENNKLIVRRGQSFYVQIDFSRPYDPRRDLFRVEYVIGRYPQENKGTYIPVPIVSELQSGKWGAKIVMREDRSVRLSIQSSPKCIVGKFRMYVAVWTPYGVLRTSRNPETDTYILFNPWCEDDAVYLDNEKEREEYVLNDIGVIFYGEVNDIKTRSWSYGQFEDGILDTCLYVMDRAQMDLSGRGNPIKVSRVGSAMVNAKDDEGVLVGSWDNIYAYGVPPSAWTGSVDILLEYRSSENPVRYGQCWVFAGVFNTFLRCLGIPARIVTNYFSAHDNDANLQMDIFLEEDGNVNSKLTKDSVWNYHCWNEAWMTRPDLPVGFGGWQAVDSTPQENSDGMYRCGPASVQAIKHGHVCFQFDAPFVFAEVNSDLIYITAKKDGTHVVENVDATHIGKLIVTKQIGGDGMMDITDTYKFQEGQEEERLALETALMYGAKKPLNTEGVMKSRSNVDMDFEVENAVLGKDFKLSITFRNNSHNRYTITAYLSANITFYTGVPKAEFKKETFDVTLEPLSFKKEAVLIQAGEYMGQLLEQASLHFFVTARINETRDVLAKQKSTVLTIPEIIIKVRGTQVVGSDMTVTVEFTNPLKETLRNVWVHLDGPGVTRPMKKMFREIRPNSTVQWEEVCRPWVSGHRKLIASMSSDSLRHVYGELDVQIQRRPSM
Method: (§1) FXIIIa activity has been determined using substrate A101 (Zedira GmbH, Darmstadt, Germany), which is based on the N-terminal dodecapeptide of α2-antipiasmin.
(§2) The mixture was incubated for 20 min at room temperature to activate FXIII. […] For measurements without inhibitor, 15 μL of assay buffer/2% (v/v) DMSO were added. All measurements were performed in triplicate. The respective IC50 values were calculated by non-linear regression using the MARS software package (BMG Labtech).

TG2 = TG2 (Homo sapiens (Human), UniProt P21980); test: Inhibitory activity against TG2 (isopeptidase assay), Tables 3 and 4; format: biochemical; settings: for Selectivity: TG2 versus FXIII
Chain of TG2 (P21980 whole entry): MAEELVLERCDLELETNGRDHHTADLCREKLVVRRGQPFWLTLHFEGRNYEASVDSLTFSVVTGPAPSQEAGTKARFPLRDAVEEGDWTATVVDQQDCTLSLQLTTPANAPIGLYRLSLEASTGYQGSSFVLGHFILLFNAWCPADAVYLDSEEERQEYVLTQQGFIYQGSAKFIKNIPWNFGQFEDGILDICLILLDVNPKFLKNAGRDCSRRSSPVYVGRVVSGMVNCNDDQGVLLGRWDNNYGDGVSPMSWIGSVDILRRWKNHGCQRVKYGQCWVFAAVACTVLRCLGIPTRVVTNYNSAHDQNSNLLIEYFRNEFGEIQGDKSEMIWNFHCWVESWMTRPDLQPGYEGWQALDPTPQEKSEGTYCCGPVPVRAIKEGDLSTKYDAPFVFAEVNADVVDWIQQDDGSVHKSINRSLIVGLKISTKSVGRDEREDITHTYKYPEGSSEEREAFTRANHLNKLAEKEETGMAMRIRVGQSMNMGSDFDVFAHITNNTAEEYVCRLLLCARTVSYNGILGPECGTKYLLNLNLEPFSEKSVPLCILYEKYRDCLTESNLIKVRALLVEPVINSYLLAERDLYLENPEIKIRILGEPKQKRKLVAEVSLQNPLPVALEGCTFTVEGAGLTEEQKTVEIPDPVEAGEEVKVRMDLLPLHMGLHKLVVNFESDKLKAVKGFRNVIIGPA
Method: as §1, §2

in vitro = settings: for half-life / recovery in plasma determined by HPLC: plasma; for recovery in plasma determined by HPLC: 37° C., over a period of 2 hours
Method: Further, the stability of compounds in plasma was determined as prerequisite for drug-likeness. Briefly, after spiking the chemical entities, the plasma was incubated at 37° C. At certain time points (e.g. at 15 and 120 minutes), 3 vol. cold MeOH were added to extract the compounds. After centrifugation, the supernatant was analyzed by HPLC. The half life was calculated based on the respective calibration curve.

whole human blood = test: Thromboelastometry (ROTEM) in whole human blood with t-PA; format: cell-based
Method: Clotting time (CT), clot formation time (CFT), maximum clot firmness (MCF) and lysis index at 60 min (LI60) were obtained using fresh whole blood in the ROTEM® delta device according to the manufacturer's instructions.

[1] = isopeptidase assay, Table 3, read-out: IC50 [nM] FXIII
[2] = isopeptidase assay, Table 3, read-out: IC50 [nM] TG2

Structure (SMILES)	IC50 (FXIII; [1])	Selectivity (TG2; isopeptidase assay, Table 3)	IC50 (TG2; [2])	recovery at 2 h (in vitro)	IC50 (FXIII; Table 4, read-out: FXIII IC50)	Selectivity (TG2; Table 4)	IC50 (TG2; Table 4, read-out: TG2 IC50)	half-life (in vitro)	increase in clot lysis at 60 minutes compared to control (LI60c) (whole human blood)	recovery in plasma determined by HPLC (in vitro)
COC(=O)/C=C/CC[C@H](NC(=O)c1cc(Cl)c(Cl)cc1C(=O)O)C(=O)N[C@H](C(=O)N1C[C@H]2[C@@H]([C@H]1C(=O)N[C@H](C(=O)N[C@H](C(N)=O)C1CCCCC1)C1CCCCC1)C2(C)C)C(C)(C)C [Compound 29] ({Benzoyl(2-COOH-4,5-Cl2)}-[X1][Tle][Pro(3R,4S-CMe2)][Chg][Chg]-NH2)	24 nM	1.3	32 nM	> 75%						
C=CCOC(=O)NCCCC[C@H](NC(=O)[C@H](CC(C)C)NC(=O)[C@H](CC(C)C)NC(=O)[C@@H](NC(=O)[C@H](CC(C)C)NC(=O)[C@@H]1CCCN1C(=O)[C@H](CO)NC(=O)C(NC(=O)[C@H](CCC(N)=O)NC(=O)[C@H](CCC(=O)O)NC(=O)[C@H](CC/C=C/C(=O)OC)NC(=O)[C@H](CC(N)=O)NC(C)=O)C(C)C)C(C)O)C(=O)O (stereo partly drawn) [Ref. 24, reference compound] (Ac-N[X1]EQ[ξV]SPL[Thr(3ξ)]LLK(Alloc)-OH)					306 nM	0.55	169 nM	< 15 min		
COC(=O)/C=C/CC[C@H](NC(=O)c1cnc(O)c([N+](=O)[O-])c1)C(=O)N[C@H](C(=O)N1C[C@@H]2CCC[C@@H]2[C@H]1C(=O)N[C@H](C(=O)N[C@H](C(N)=O)C1CCCCC1)C1CCCCC1)C(C)(C)C [Compound 28] (X3-[X1][Tle][Pro(3S,4R-(CH2)3)][Chg][Chg]-NH2)	36 nM	1.1	41 nM	> 75%						
C=C1C[C@@H](C(=O)N[C@@H](CC(C)C)C(=O)N2CCC[C@H]2C(=O)O)N(C(=O)[C@@H](NC(=O)[C@H](CC/C=C/C(=O)OC)NC(=O)c2cc(C(=O)O)cc([N+](=O)[O-])c2)C(C)(C)C)C1 [Compound 43] ({Benzoyl(3-COOH,5-NO2)}-[X1][Tle][Pro(4-methylene)]LP-OH)				> 75%	158 nM	5.42	856 nM		14%	
COC(=O)/C=C/CC[C@H](NC(=O)c1ccncc1C(=O)O)C(=O)N[C@H](C(=O)N1CC(=O)C[C@H]1C(=O)N[C@H](C(=O)N[C@H](C(=O)OC)C1CCCCC1)C1CCCCC1)C(C)(C)C [35a/b] ({Isonicotinoyl(3-COOH)}-[X1][Tle][Pro(4-oxo)][Chg][Chg]-OMe)	86 nM	2.3	198 nM							> 75%
COC(=O)/C=C/CC[C@H](NC(=O)[C@@H]1CC(=O)CN1)C(=O)N[C@@H](CC1CC1)C(=O)N1CCOC[C@H]1C(=O)N[C@@H](CC(C)C)C(=O)N1CCC[C@H]1C(=O)O [Compound 44] (H-[Pro(4-oxo)][X1][Ala(cPr)][Morpholine(3S-CO)]LP-OH)				> 75%	141 nM	5.66	798 nM		11%	
COC(=O)/C=C/CC[C@H](NC(=O)c1cnc(O)c([N+](=O)[O-])c1)C(=O)N[C@H](C(=O)N1CC(=O)C[C@H]1C(=O)N[C@H](C(=O)N[C@H](C(N)=O)C1CCCCC1)C1CCCCC1)C(C)(C)C [Compound 6] (X3-[X1][Tle][Pro(4-oxo)][Chg][Chg]-NH2)	17 nM	0.7	12 nM	> 75%						
CCCC[C@H](NC(=O)[C@H](CC/C=C/C(=O)OC)NC(=O)[C@@H](CC(=O)O)NC(C)=O)C(=O)N[C@@H](CCCC)C(=O)N[C@@H](CC(C)C)C(=O)N1CCC[C@H]1C(=O)N[C@@H](Cc1c[nH]c2ccccc12)C(=O)N1CCC[C@H]1C(=O)O [Ref. 22, reference compound] (Ac-[dD][X1][Nle][Nle]LPWP-OH)					110 nM	26.54	2920 nM	< 15 min		
CC(C)(C)[C@H](NC(=O)[C@H](CC/C=C/C(N)=O)NC(=O)c1ccncc1C(=O)O)C(=O)N1CC(=O)C[C@H]1C(=O)N[C@H](C(=O)N[C@H](C(N)=O)C1CCCCC1)C1CCCCC1 [15a/b] ({Isonicotinoyl(3-COOH)}-[X8][Tle][Pro(4-oxo)][Chg][Chg]-NH2)	69 nM	7.0	483 nM							> 75%
CCCC[C@H](NC(=O)[C@H](CC/C=C/C(=O)OC)NC(=O)[C@@H]1CC(=O)CN1)C(=O)N[C@H](C(=O)N[C@@H](CC(C)C)C(=O)N1CCC[C@H]1C(=O)O)C(C)CC (stereo partly drawn) [Ref. 16, reference compound] (H-[Pro(4-oxo)][X1][Nle][Ile(3ξ)]LP-OH)					> 10 nM		196 nM	< 15 min		
COC(=O)/C=C/CC[C@H](NC(=O)c1cncc(C(=O)O)c1)C(=O)N[C@H](C(=O)N1CCC[C@H]1C(=O)N[C@H](C(=O)N[C@H](C(N)=O)C1CCCCC1)C1CCCCC1)C(C)(C)C [Compound 27] (X4-[X1][Tle]P[Chg][Chg]-NH2)	27 nM	2.4	64 nM	> 75%						
COC(=O)/C=C/CC[C@H](NC(=O)c1cc(C(=O)O)cc([N+](=O)[O-])c1)C(=O)N[C@H](C(=O)N1CC(=O)C[C@H]1C(=O)N[C@@H](CC(C)C)C(=O)N1CCC[C@@]1(C)C(=O)NC(C)COc1c(C)cccc1C)C(C)(C)C (stereo partly drawn) [Compound 30] ({Benzoyl(3-COOH,5-NO2)}-[X1][Tle][Pro(4-oxo)]L[αMeP]-X6)	15 nM	1.1		> 75%						
CCOC(=O)/C=C/CC[C@H](NC(=O)c1cc(Cl)c(Cl)cc1C(=O)O)C(=O)N[C@H](C(=O)N1CCC[C@H]1C(=O)N[C@@H](CC(C)C)C(=O)N[C@H](C(N)=O)C1CCCCC1)C(C)C [Compound 38] ({Benzoyl(2-COOH-4,5-Cl2)}-[Nle(5E-ene,6-CO2Et)]VPL[Chg]-NH2)				> 75%	47 nM	16.17	760 nM			
CCOC(=O)/C=C/CC[C@H](NC(=O)c1ccncc1C(=O)O)C(=O)N[C@H](C(=O)N1CC(=O)C[C@H]1C(=O)N[C@H](C(=O)N[C@H](C(N)=O)C1CCCCC1)C1CCCCC1)C(C)(C)C [8a/b] ({Isonicotinoyl(3-COOH)}-[Nle(5E-ene,6-CO2Et)][Tle][Pro(4-oxo)][Chg][Chg]-NH2)	21 nM	19.9	417 nM							> 75%
CNC(=O)[C@@H](NC(=O)[C@@H](NC(=O)[C@@H]1CC(=O)CN1C(=O)[C@@H](NC(=O)[C@H](CC/C=C/C(=O)OC)NC(=O)c1ccncc1C(=O)O)C(C)(C)C)C1CCCCC1)C1CCCCC1 [36a/b] ({Isonicotinoyl(3-COOH)}-[X1][Tle][Pro(4-oxo)][Chg][Chg]-NHMe)	41 nM	4.1	168 nM							> 75%
COC(=O)/C=C/CC[C@H](NC(=O)[C@H](CC(N)=O)NC(C)=O)C(=O)N[C@@H](CCC(=O)O)C(=O)N[C@@H](CCC(N)=O)C(=O)N[C@H](C(=O)N[C@@H](CO)C(=O)N1CCC[C@H]1C(=O)N[C@@H](CC(C)C)C(=O)N[C@H](C(=O)N[C@@H](CC(C)C)C(=O)N[C@@H](CC(C)C)C(=O)N[C@@H](CCCCN)C(=O)O)C(C)O)C(C)C (stereo partly drawn) [Ref. 17, reference compound] (Ac-N[X1]EQVSPL[Thr(3ξ)]LLK-OH)					420 nM	0.54	227 nM	< 15 min		
CCCC[C@H](NC(=O)[C@H](CC/C=C/C(=O)OC)NC(=O)[C@@H](CC(=O)O)NC(C)=O)C(=O)N[C@@H](CCCC)C(=O)N[C@@H](CC(C)C)C(=O)N1CCC[C@H]1C(=O)N[C@@H](Cc1c[nH]c2ccccc12)C(=O)O [Ref. 13, reference compound] (Ac-[dD][X1][Nle][Nle]LPW-OH)					465 nM	6.02	2800 nM	< 15 min		
COC(=O)/C=C/CC[C@H](NC(=O)c1nccnc1C(=O)O)C(=O)N[C@H](C(=O)N1CC(=O)C[C@H]1C(=O)N[C@H](C(=O)N[C@H](C(N)=O)C1CCCCC1)C1CCCCC1)C(C)(C)C [Compound 3] (X7-[X1][Tle][Pro(4-oxo)][Chg][Chg]-NH2)	20 nM	0.8	16 nM	> 75%						
